The values below come from patent US12491181B2, “Nimodipine injection composition and preparation method therefor” (priority 2018, dated 2025).

In general, solubility refers to the concentration that dissolves in the medium under given conditions.

In brackets after ≈: the same amount, converted by molar mass. Read-outs that look alike come from different tables or passages of the source.

For data set [1] the following is noted: cited from earlier work.
Data set [2] deals with Wild-type AB zebrafish larvae. The data set is described as follows: Zebrafish cardiovascular toxicity, administration by dissolving the drug into the water. Format: in vivo. More on the design: Mortality / Incidence of Atrial Arrest: unit not given here.
In data set [3] the test system is Wild-type AB zebrafish larvae. Kind of data set: Zebrafish cardiovascular toxicity, administration via yolk sac injection. The data set is classed as in vivo. The conditions noted are these: yolk sac injection 10 nl. Here is the method: Wild-type AB zebrafish larvae were treated with the drugs to be tested for 24 hours via yolk sac injection administration with a maximum dose volume of 40 nl, and the five initial test concentrations were: 0.1 mg/mL, 1 mg/mL, 10 mg/mL, 100 mg/mL, and 500 mg/mL, respectively. At the same time, a blank control group was set up, with 30 zebrafish treated at each concentration. At the end of drug treatment, the number of zebrafish deaths in each experimental group was counted to provide a basis for the next experimental concentration design.
2.2.1 10 nl was administered via yolk sac injection. After treatment for a certain period of time, 10 zebrafish were randomly selected to have their heart rates counted, and their relative heart rates were calculated for comparison.
2.2.3 10 zebrafish in each group were randomly selected and observed under the dissecting microscope. […]
Three formal experimental concentrations were set. After treatment for a certain period of time, 10 zebrafish were randomly selected to have their heart rates counted, and their relative heart rates were calculated for comparison.

Data set [4] can be described thus: Solubility Test for Nimodipine in Oil Phase. The conditions noted are these: normal temperature; for solubility: oil or lipid. Format: physicochemical. From the text:
There are different crystalline forms for nimodipine, i.e. α and β. The solubility is different in solvents for different crystalline forms. […] The solubility in an oil phase was not reported yet. […] Furthermore, the solubility of α-type is much greater than that of β-type both in the medium-chain fatty oil and the mixture of soybean oil and medium-chain fatty oil (see the table below). Therefore, formulating α-type nimodipine into a fat emulsion injection may solve the problems of low drug loading efficiency, poor safety, and poor stability occurring in its solution for injection and other fat emulsions for injection developed by the prior art. [table]

The conditions of data set [5]: cited from earlier work. This is another data set of the same source.
The subject of data set [6] is guinea pigs. The data set is described as follows: Active Systemic Anaphylaxis Test in Guinea Pigs. Conditions: positive control group, after stimulation.
Data set [7] has as its system SD rats. Kind of data set: Passive Anaphylaxis Test in Rats. Format: in vivo, rat. Also on record: key to Blue Stain Reaction: − indicates negative; + indicates positive. The conditions noted are these: sensitized SD rats, 100 mg/kg intravenously, positive control.
Setting [8] is: dissolved into the water, 0.625 μg/ml.
Where [9] appears, read: dissolved into the water, 1.25 μg/ml.
The mark [10] stands for this setting: dissolved into the water, 2.5 μg/ml.
Setting [11] is: dissolved into the water, 5.0 μg/ml.

For `COCCOC(=O)C1=C(C)NC(C)=C(C(=O)OC(C)C)C1c1cccc([N+](=O)[O-])c1` (centres unmarked) [Drug substance, Nimodipine], the figures for the oral bioavailability in data set [1] (healthy subjects) and in data set [1] (patients with subarachnoid hemorrhage) were 5-13% and 3-28%, respectively. Moreover, the biological half-life in data set [1] (in vivo) is reported as 1.5-2 h. The “concentration at which pericardial edema was induced in all zebrafish” value in data set [2] (dissolved into the water) is 5000 ng/mL. For the same compound, the “Incidence of Atrial Arrest” value in data set [2] (setting [8]) was 0; in data set [2] (setting [9]), 0; in data set [2] (setting [10]), 10; in data set [2] (setting [11]) it was 90. Besides, the “Incidence of Pericardial Edema” value in data set [2] (setting [8]) stood at 10; in data set [2] (setting [9]), 20; in data set [2] (setting [10]) it was 50; in data set [2] (setting [11]) it was 100; in data set [3] (0.5 mg/ml), 0%; in data set [3] (1.0 mg/ml) it was 20%. Besides, the “Incidence of Pericardial Edema” value in data set [3] (2.0 mg/ml (67 mg/kg)) came out at 30%; in data set [3] (4.0 mg/ml), 60%; in data set [3] (8.0 mg/ml) it was 60%; in data set [3] (16 mg/ml), 70%; in data set [3] (32 mg/ml), 100%. For the same compound, the Mortality in data set [2] (setting [8]) amounted to 0; in data set [2] (setting [9]) it was 0; in data set [2] (setting [10]), 0; in data set [2] (setting [11]), 26.7; in data set [3] (0.5 mg/ml), 0%; in data set [3] (1.0 mg/ml), 0%. For the same compound, the Mortality in data set [3] (2.0 mg/ml) turned out to be 0%; in data set [3] (4.0 mg/ml) it was 20%; in data set [3] (8.0 mg/ml) it was 33.3%; in data set [3] (16 mg/ml), 50%; in data set [3] (32 mg/ml), 80%. Also, the “Relative Heart Rate” value in data set [2] (setting [8]) is recorded as 97.0; in data set [2] (setting [9]), 94.8; in data set [2] (setting [10]), 76.4; in data set [2] (setting [11]), 58.5. The “incidence of atrial arrest” value in data set [2] (setting [11]) came to 90%. Further, the maximum non-lethal concentration in data set [2] (zebrafish, drug dissolved into the water, 24 hours) was 2.5 µg/mL. Also, the “Actual Heart Rate (± SD)” value was determined as 159.0 ± 6.8 beat / min in data set [3] (0.5 mg/ml); 159.6 ± 5.3 beat / min in data set [3] (1.0 mg/ml); 158.4 ± 8.7 beat / min in data set [3] (2.0 mg/ml); 166.5 ± 7.2 beat / min in data set [3] (4.0 mg/ml); 167.1 ± 10.2 beat / min in data set [3] (8.0 mg/ml); 166.8 ± 10.3 beat / min in data set [3] (16 mg/ml). The “Actual Heart Rate (± SD)” value in data set [3] (32 mg/ml) is 144.5 ± 7.4 beat / min. In addition, the “Incidence of Circulatory Insufficiency” value in data set [3] (0.5 mg/ml) was 0%; in data set [3] (1.0 mg/ml), 0%; in data set [3] (2.0 mg/ml), 10%; in data set [3] (4.0 mg/ml), 10%; in data set [3] (8.0 mg/ml), 40%; in data set [3] (16 mg/ml), 40%. The “Incidence of Circulatory Insufficiency” value in data set [3] (32 mg/ml) came out at 100%. The “Incidence of Decreased Blood Flow” value in data set [3] (0.5 mg/ml) was determined as 0%; in data set [3] (1.0 mg/ml), 10%; in data set [3] (2.0 mg/ml), 10%; in data set [3] (4.0 mg/ml), 40%; in data set [3] (8.0 mg/ml) it was 10%; in data set [3] (16 mg/ml), 30%. Further, in data set [3] (32 mg/ml), the “Incidence of Decreased Blood Flow” value is reported as 0%. The “Relative Heart Rate (± SD)” value in data set [3] (0.5 mg/ml) amounted to 99.1 ± 4.2%; in data set [3] (1.0 mg/ml), 99.4 ± 3.3%; in data set [3] (2.0 mg/ml), 98.7 ± 5.4%; in data set [3] (4.0 mg/ml), 103.7 ± 4.5%; in data set [3] (8.0 mg/ml) it was 104.1 ± 6.4%; in data set [3] (16 mg/ml), 103.9 ± 6.4%. For the same compound, the “Relative Heart Rate (± SD)” value in data set [3] (32 mg/ml) turned out to be 90.0 ± 4.6 %.
Take `COCCOC(=O)C1=C(C)NC(C)=C(C(=O)OC(C)C)C1c1cccc([N+](=O)[O-])c1` (stereo not drawn) [α-type, nimodipine]: in data set [4], the “Solubility, Medium-chain Oil” value is 23.22 mg/mL (≈ 55.5 mM); the “Solubility, Soybean Oil” value is given as 7.5 mg/mL (≈ 17.9 mM); the “Solubility, Soybean Oil:Medium-chain Oil (4:6)” value stood at 18.1 mg/mL (≈ 43.3 mM).
`COCCOC(=O)C1=C(C)NC(C)=C(C(=O)OC(C)C)C1c1cccc([N+](=O)[O-])c1` (stereo not drawn) [β-type, nimodipine]: in data set [5] (normal temperature), the “Solubility, Water” value is given as 0.0036 mg/mL (≈ 0.0086 mM). For the same compound, the solubility in water in data set [5] (published literature) is 0.0036 mg/mL (≈ 0.0086 mM). Besides, the solubility in data set [4] (medium-chain oil, read-out: Solubility, Medium-chain Oil) came out at 11.8 mg/mL (≈ 28.2 mM); in data set [4] (soybean oil, read-out: Solubility, Soybean Oil) it was 6.7 mg/mL (≈ 16 mM); in data set [4] (soybean oil:medium-chain oil (4:6), read-out: Solubility, Soybean Oil:Medium-chain Oil (4:6)), 11 mg/mL (≈ 26.3 mM).
Take “bovine serum albumin: positive control of the anaphylaxis tests”: in data set [6], the “intensity of anaphylaxis reaction” value is reported as “++˜++++”, the mortality rate worked out at 50% and the total reaction rate is listed as 100%. In addition, in data set [7], the “Blue Stain Reaction” value is given as “+” and the “Blue Stain Reaction (diameter)” value turned out to be 22.0 ± 4.3 mm.
